Measurements taken from ChEMBL document CHEMBL1132682, “High affinity retinoic acid receptor antagonists: analogs of AGN 193109” (Bioorg Med Chem Lett, 1999).

Legend:
[1] = target: T1, Retinoic acid receptor alpha (Homo sapiens, UniProt P10276); test: Ability to displace 3[H](all-E)-retinoic acid (5 nM) from alpha retinoic acid receptor (alpha RAR) using transactivation assay
T1 sequence (P10276 whole entry): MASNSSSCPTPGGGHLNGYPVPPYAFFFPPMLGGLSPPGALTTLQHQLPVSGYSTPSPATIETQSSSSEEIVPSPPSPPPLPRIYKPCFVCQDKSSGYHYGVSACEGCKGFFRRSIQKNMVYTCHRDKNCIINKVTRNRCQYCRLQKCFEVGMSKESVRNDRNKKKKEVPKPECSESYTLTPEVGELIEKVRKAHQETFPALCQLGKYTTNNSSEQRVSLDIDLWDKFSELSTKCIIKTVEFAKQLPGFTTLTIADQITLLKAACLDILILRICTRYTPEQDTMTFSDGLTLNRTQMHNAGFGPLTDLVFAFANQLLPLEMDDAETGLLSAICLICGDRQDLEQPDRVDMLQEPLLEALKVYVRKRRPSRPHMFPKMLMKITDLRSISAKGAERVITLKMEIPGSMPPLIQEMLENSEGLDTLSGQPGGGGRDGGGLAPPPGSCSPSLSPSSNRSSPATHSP

[2] = target: T2, Retinoic acid receptor gamma (Homo sapiens, UniProt P13631); test: Ability to displace 3[H](all-E)-retinoic acid (5 nM) from Retinoic acid receptor gamma using transactivation assay
T2 sequence (P13631 whole entry): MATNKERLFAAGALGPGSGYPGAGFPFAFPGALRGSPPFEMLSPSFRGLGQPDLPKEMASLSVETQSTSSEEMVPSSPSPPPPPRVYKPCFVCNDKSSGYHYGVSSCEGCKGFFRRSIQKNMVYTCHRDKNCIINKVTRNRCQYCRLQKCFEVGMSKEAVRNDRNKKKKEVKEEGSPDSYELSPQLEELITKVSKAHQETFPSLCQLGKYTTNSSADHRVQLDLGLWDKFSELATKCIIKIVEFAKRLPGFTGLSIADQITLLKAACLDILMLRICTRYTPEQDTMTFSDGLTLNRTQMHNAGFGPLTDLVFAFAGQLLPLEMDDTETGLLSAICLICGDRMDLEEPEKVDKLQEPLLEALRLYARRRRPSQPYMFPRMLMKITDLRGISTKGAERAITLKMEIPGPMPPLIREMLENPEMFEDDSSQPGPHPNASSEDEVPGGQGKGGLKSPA

[3] = target: T3, Retinoic acid receptor beta (Homo sapiens, UniProt P10826); test: Ability to displace 3[H](all-E)-retinoic acid (5 nM) from beta retinoic acid receptor (beta RAR) using transactivation assay
T3 sequence (P10826 whole entry): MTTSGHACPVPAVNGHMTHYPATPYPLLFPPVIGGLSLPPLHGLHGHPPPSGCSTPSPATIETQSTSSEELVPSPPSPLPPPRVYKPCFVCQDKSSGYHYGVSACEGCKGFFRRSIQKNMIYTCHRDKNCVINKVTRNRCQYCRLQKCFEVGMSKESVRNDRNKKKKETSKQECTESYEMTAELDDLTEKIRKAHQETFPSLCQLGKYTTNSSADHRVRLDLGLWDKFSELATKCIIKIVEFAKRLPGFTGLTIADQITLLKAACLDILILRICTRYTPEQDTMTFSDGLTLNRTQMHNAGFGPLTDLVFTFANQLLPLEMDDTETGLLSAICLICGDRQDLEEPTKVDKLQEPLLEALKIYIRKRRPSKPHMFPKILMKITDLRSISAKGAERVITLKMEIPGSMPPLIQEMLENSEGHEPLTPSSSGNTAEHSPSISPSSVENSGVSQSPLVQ

| SMILES | Kd [1] [nM] | Kd [2] [nM] | Kd [3] [nM] |
| --- | --- | --- | --- |
| CC1(C)CC=C(c2ccc(O)cc2)c2cc(C#Cc3ccc(C(=O)O)cc3)ccc21 | 229 | 98 | 72 |
| Cc1cc(C)cc(C2=CCC(C)(C)c3ccc(C#Cc4ccc(C(=O)O)cc4)cc32)c1 | 1050 | 408 | 274 |
| CC(C)c1ccc(C2=CCC(C)(C)c3ccc(C#Cc4ccc(C(=O)O)cc4)cc32)cc1 | 90 | 171 | 11 |
| CCc1ccc(C2=CCC(C)(C)c3ccc(C#Cc4ccc(C(=O)O)cc4)cc32)cc1 | 40 | 19 | 10 |
| CC1(C)CC=C(c2ccc(C(F)(F)F)cc2)c2cc(C#Cc3ccc(C(=O)O)cc3)ccc21 | 44 | 57 | 29 |
| CC1(C)CC=C(c2ccc(Cl)cc2)c2cc(C#Cc3ccc(C(=O)O)cc3)ccc21 | 58 | 27 | 18 |
| COc1ccc(C2=CCC(C)(C)c3ccc(C#Cc4ccc(C(=O)O)cc4)cc32)cc1 | 60 | 36 | 16 |
| CC1(C)CC=C(c2ccc(C#N)cc2)c2cc(C#Cc3ccc(C(=O)O)cc3)ccc21 | 38 | 51 | 14 |
| CC(C)(C)c1ccc(C2=CCC(C)(C)c3ccc(C#Cc4ccc(C(=O)O)cc4)cc32)cc1 | 178 | 94 | 21 |

The next lines start with the values.

| Kd [1] [nM] | Kd [2] [nM] | Kd [3] [nM] | SMILES |
| --- | --- | --- | --- |
| 276 | 67 | 51 | Cc1cccc(C2=CCC(C)(C)c3ccc(C#Cc4ccc(C(=O)O)cc4)cc32)c1 |
| 147 | 42 | 33 | CC1(C)CC=C(c2ccccc2)c2cc(C#Cc3ccc(C(=O)O)cc3)ccc21 |
| 103 | 35 | 29 | Cc1ccccc1C1=CCC(C)(C)c2ccc(C#Cc3ccc(C(=O)O)cc3)cc21 |
| 85 | 82 | 52 | CC1(C)CC=C(c2ccc(F)cc2)c2cc(C#Cc3ccc(C(=O)O)cc3)ccc21 |
| 919 | 254 | 162 | CC1(C)CC=C(c2cccc(O)c2)c2cc(C#Cc3ccc(C(=O)O)cc3)ccc21 |
| 16 | 7 | 7 | Cc1ccc(C2=CCC(C)(C)c3ccc(C#Cc4ccc(C(=O)O)cc4)cc32)cc1 |
